Experimental data taken from patent US11596611B2, “Hepatitis B antiviral agents” (ENANTA PHARMACEUTICALS, INC., priority 2017, dated 2023).

How the values were obtained:
[1] = tested on: HBV; test: HepAD38 antiviral assay: reduction of viral product accumulation (virion DNA by qPCR, HBsAg or HBeAg by ELISA); type: cell-based, hepatitis B virus; details: Hepatitis B virus, 120 h; HepAD38 cells, five days after compound addition; 50% reduction of viral product vs no drug controls; read-out: HepAD38 EC50
Outline: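 Readouts were qPCR of lysed virion DNA plus ELISA for HBsAg or HBeAg, samples diluted into linear range. HepAD38 cells, washed free of tetracycline, received compound diluted 1:200 from DMSO for 5 days; 8-day variant refreshed media and compound on days 2 and 5.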

[2] = Compound toxicity by ATPLite (total ATP levels); type: cell-based; details: human, three days after compound addition, 50% reduction of total ATP
Procedure: Methods: HepAD38 cells are maintained as previously reported (Ladner et al, Antimicrob. Agents Chemother. 1997, […], 1715). Briefly, cells are passaged upon attaining confluency in DMEM/F12 media in the presence of 10% FBS, Penn/Strep, 250 μg/mL G418, and 1 ug/ml tetracycline. Novel compounds are screened by first washing cells three times with PBS to remove tetracycline, and plating in 96 well plates at 35,000 cells/well. Compounds dissolved in DMSO are then diluted 1:200 into wells containing cells. Five days after compound addition, material is harvested for analysis. For an extended 8 days analysis, cells are plated and treated as described above, but media and compound are refreshed on d2 and d5 post initial treatment.
Compound toxicity is evaluated by seeding cells at 15,000 cells/well and treating with compound as described above.

SMILES | EC50 [1] | CC50 at 3 days ([2]; class symbols) | CC50 at 3 days ([2]; numeric bounds)
COC(C)(C)CNC(=O)C[C@]1(O)C2CCC1C[C@@H](S(=O)(=O)c1cc(C(=O)Nc3ccc(F)c(F)c3)ccc1Cl)C2 [Example 191] | < 0.104 µM | > 25 µM | 
O=C(C[C@]1(O)C2CCC1C[C@@H](S(=O)(=O)c1cc(C(=O)Nc3ccc(F)c(F)c3)ccc1Cl)C2)NC1CC(O)C1 (some centres unmarked) [Example 192] | < 0.104 µM |  | > 12.5 µM
CC(C)(O)C[C@@]1(O)C2CC[C@H]1C[C@H](S(=O)(=O)c1cc(C(=O)Nc3ccc(F)c(F)c3)ccc1Cl)C2 [Example 193] | < 0.104 µM | > 25 µM | 
CC(=O)C[C@@]1(O)C2CC[C@H]1C[C@H](S(=O)(=O)c1cc(C(=O)Nc3ccc(F)c(F)c3)ccc1Cl)C2 [Example 215] | < 0.104 µM | > 25 µM | 
CC(O)C[C@@]1(O)C2CC[C@H]1C[C@H](S(=O)(=O)c1cc(C(=O)Nc3ccc(F)c(F)c3)ccc1Cl)C2 (some centres unmarked) [Example 218] | < 0.104 µM | 10 to 25 µM | 
[2H]C1([2H])C2C[C@]([2H])(S(=O)(=O)c3cc(C(=O)Nc4ccc(F)c(F)c4)ccc3Cl)CC(C1([2H])[2H])[C@]2(O)CO [Example 272] | < 0.104 µM | > 25 µM | 
[2H]C1([2H])C2CCC(C([2H])([2H])[C@]1([2H])S(=O)(=O)c1cc(C(=O)Nc3ccc(F)c(F)c3)ccc1Cl)[C@@]2(O)CO [Example 279] | < 0.104 µM | > 25 µM | 
Cn1cc(C(O)[C@]2(O)C3CCC2C[C@@H](S(=O)(=O)c2cc(C(=O)Nc4ccc(F)c(F)c4)ccc2Cl)C3)cn1 (some centres unmarked) [Example 289] | < 0.104 µM | > 25 µM | 
O=C(Nc1ccc(F)c(F)c1)c1ccc(Cl)c(S(=O)(=O)[C@H]2CC3CCC(C2)[C@]3(O)C(O)c2ncco2)c1 (some centres unmarked) [Example 290] | < 0.104 µM | > 25 µM | 
O=C(Nc1ccc(F)c(F)c1)c1ccc(Cl)c(S(=O)(=O)[C@H]2CC3CCC(C2)[C@]3(O)C(O)c2ccc(F)cn2)c1 (some centres unmarked) [Example 291] | < 0.104 µM | > 25 µM | 
Cc1cccc(C(O)[C@@]2(O)C3CC[C@H]2C[C@H](S(=O)(=O)c2cc(C(=O)Nc4ccc(F)c(F)c4)ccc2Cl)C3)n1 (some centres unmarked) [Example 294] | < 0.104 µM | > 25 µM | 
Cc1ccnc(C(O)[C@@]2(O)C3CC[C@H]2C[C@H](S(=O)(=O)c2cc(C(=O)Nc4ccc(F)c(F)c4)ccc2Cl)C3)c1 (some centres unmarked) [Example 296] | < 0.104 µM | > 25 µM | 
O=C(Nc1ccc(F)c(F)c1)c1ccc(Cl)c(S(=O)(=O)[C@@H]2CC3CC[C@@H](C2)[C@@]3(O)C(O)c2nccs2)c1 (some centres unmarked) [Example 302] | < 0.104 µM | > 25 µM | 
O=C(Nc1ccc(F)c(F)c1)c1ccc(Cl)c(S(=O)(=O)[C@@H]2CC3CC[C@@H](C2)[C@@]3(O)C(O)c2cnoc2)c1 (some centres unmarked) [Example 303] | < 0.104 µM | > 25 µM | 
O=C(Nc1ccc(F)c(F)c1)c1ccc(Cl)c(S(=O)(=O)[C@H]2CC3CCC(C2)[C@]3(O)C2CO2)c1 (some centres unmarked) [Example 308] | < 0.104 µM | > 25 µM | 
O=C(Nc1ccc(F)c(F)c1)c1ccc(Cl)c(S(=O)(=O)[C@H]2CC3CCC(C2)[C@]3(O)C(O)Cc2ccncc2)c1 (some centres unmarked) [Example 317] | < 0.104 µM | > 25 µM | 
O=C(Nc1ccc(F)c(F)c1)c1ccc(Cl)c(S(=O)(=O)[C@H]2CC3CCC(C2)[C@]3(O)C(O)Cc2ccccn2)c1 (some centres unmarked) [Example 319] | < 0.104 µM | > 25 µM | 
O=C(Nc1ccc(F)c(F)c1)c1ccc(F)c(S(=O)(=O)[C@@H]2CC3CC[C@@H](C2)[C@@]3(O)CO)c1 [Example 325] | < 0.104 µM | > 25 µM | 
COC(=O)[C@H]1O[C@@H](OC[C@@]2(O)C3CC[C@H]2C[C@H](S(=O)(=O)c2cc(C(=O)Nc4ccc(F)c(F)c4)ccc2Cl)C3)[C@H](OC(C)=O)[C@@H](OC(C)=O)[C@@H]1OC(C)=O [Example 329] | < 0.104 µM | > 25 µM | 
CC(=O)[C@@H](O)[C@@]1(O)C2CC[C@H]1C[C@H](S(=O)(=O)c1cc(C(=O)Nc3ccc(F)c(F)c3)ccc1Cl)C2 [Example 331] | < 0.104 µM | > 25 µM | 
CC(C)(O)[C@@H](O)[C@@]1(O)C2CC[C@H]1C[C@H](S(=O)(=O)c1cc(C(=O)Nc3ccc(F)c(F)c3)ccc1Cl)C2 [Example 332] | < 0.104 µM | > 25 µM | 
Cc1cc(Cl)c(S(=O)(=O)[C@H]2CC3CCC(C2)[C@]3(O)[C@H](O)[C@H](C)O)cc1C(=O)Nc1ccc(F)c(F)c1 [Example 335] | < 0.104 µM | > 25 µM | 
[2H]c1cc(F)c(F)c([2H])c1NC(=O)c1ccc(Cl)c(S(=O)(=O)[C@@H]2C([2H])([2H])C3CC[C@@H](C2([2H])[2H])[C@@]3(O)[C@@H](O)[C@H](C)O)c1 [Example 338] | < 0.104 µM | > 25 µM | 
C[C@@H]1CN([C@H]2C3CCC2C[C@H](S(=O)(=O)c2cc(C(=O)Nc4ccc(F)c(F)c4)ccc2Cl)C3)C(=O)O1 [Example 344] | < 0.104 µM | > 25 µM | 
C[C@H](O)C(=O)[C@]1(O)C2CCC1C[C@@H](S(=O)(=O)c1cc(C(=O)Nc3ccc(F)c(F)c3)ccc1Cl)C2 [Example 345] | < 0.104 µM | > 25 µM | 
